According to PMC10308769, “First reported double drug–drug interaction in a cancer renal patient under everolimus treatment: therapeutic drug monitoring and review of literature” (European Journal of Medical Research, 2023):
“Also recorded” adds a separate entry of the source. Like-named read-outs stand apart in the source and are kept apart here. One block for each compound: values may come before it.

How the values were obtained:
[1] = test system: renal cell carcinoma (RCC); test: Clinical course of the case patient: toxicities, response, PFS; format: in vivo
Description: A person with smoking and epilepsy history was diagnosed from a stage pT3a renal carcinoma in December 2015. Radical right nephrectomy was performed in February 2016. In September 2018, a right lung segmentectomy was practiced due to lepidic adenocarcinoma growth. On February 2021 progression was detected with right adrenal massive bleeding, hilar adenopathy and left renal adrenal metastasis. Nivolumab was initiated as first-line treatment in May 2021 for intermediate-risk clear-cell RCC. […] In December 2021, new progression was detected and second-line treatment with cabozantinib 60 mg daily was started.
(§1) This finding was discussed within the multidisciplinary team, including the oncologist and the pharmacist, and a TDM plan was planned. Method used for analysis was ultra-high-performance liquid chromatography coupled to tandem mass spectrometry.
Everolimus dose was increased from 10 mg QD to 15 mg daily (administered 10 mg, 1 h before breakfast and 5 mg, 1 h before dinner). […] However, a second dose adjustment was needed, 10 mg BID, administered before meals. Two weeks and a month later, new TDM were planned and Cminss were 10.6 ng/ml and 8.7 ng/ml, respectively (Fig. 2). […] Unfortunately, everolimus treatment was stopped on July 2022, due to lung progression, pleural effusion, and respiratory insufficiency, and finally patient died.

CYP3A4 = test system: CYP3A4; set-up: method as in lexicomp and drugs databases; conditions: ref lexicomp and drugs databases; cited from earlier work
[2] = Therapeutic drug monitoring of everolimus in the case patient (UHPLC-MS/MS); format: in vivo; conditions: human, plasma, oral, co-medication carbamazepine and phenytoin, read-out: Cminss
Description: as §1

[3] = set-up: method as in earlier work; conditions: single oral 10 mg dose, cited from earlier work
[4] = set-up: method as in product label; conditions: ref product label, cited from earlier work
[5] = set-up: method as in PMID 24332451; conditions: cited from earlier work
breast cancer = test system: breast cancer; set-up: method as in PMID 36188563; conditions: cited from earlier work
[6] = set-up: method as in PMID 16187976; conditions: single 2 mg dose everolimus with verapamil 80 mg three times daily, 16 healthy subjects; cited from earlier work
[7] = set-up: method as in PMID 15785960; conditions: single 2-mg dose everolimus with erythromycin 500 mg TID for 9 days; cited from earlier work
[8] = set-up: method as in PMID 25361989; conditions: cited from earlier work
[9] = set-up: method as in PMID 28762135; conditions: 10 patients, cited from earlier work
renal cancer [10] = test system: renal cancer; set-up: method as in PMID 27279544; conditions: renal cancer patients, second or third-line therapy; cited from earlier work
renal cancer [11] = test system: renal cancer; set-up: method as in PMID 22209391; conditions: cited from earlier work

Compound: Nivolumab
adverse events ([1]; nivolumab first-line treatment, case patient): dry mouth, grade II anorexia and grade I astheny; also recorded: no immune-mediated toxicities

Compound: COc1cc2nccc(Oc3ccc(NC(=O)C4(C(=O)Nc5ccc(F)cc5)CC4)cc3)c2cc1OC [cabozantinib]
adverse events ([1]; cabozantinib 60 mg daily second-line treatment, case patient): hypertension grade I; also recorded: nausea and diarrhea grade I

Compound: NC(=O)N1c2ccccc2C=Cc2ccccc21 [carbamazepine]
classification of effect on CYP3A4 metabolism (CYP3A4): strong inducers

concentration at 1 month ([2]; 10 mg BID, everolimus 10 mg BID, a month later): 8.7 ng/mL | concentration at 2 weeks ([2]; 10 mg BID, everolimus 10 mg BID, two weeks later): 10.6 ng/mL | concentration at 4 weeks ([2]; 10 mg QD, everolimus 10 mg QD fasted, four weeks after starting treatment): 3.7 ng/mL | concentration at 4 weeks ([2]; 15 mg daily (10 mg + 5 mg), everolimus 15 mg daily (10 mg + 5 mg), four weeks later): 6.4 ng/mL
Compound: CO[C@H]1C[C@@H]2CC[C@@H](C)[C@@](O)(O2)C(=O)C(=O)N2CCCC[C@H]2C(=O)O[C@H]([C@H](C)C[C@@H]2CC[C@@H](OCCO)[C@H](OC)C2)CC(=O)[C@H](C)/C=C(\C)[C@@H](O)[C@@H](OC)C(=O)[C@H](C)C[C@H](C)/C=C/C=C/C=C/1C [everolimus]
PFS ([1]; case patient, everolimus third line RCC): 3.7 months | toxicities ([1]; during everolimus treatment): no relevant toxicities were observed | response to treatment ([1]; during everolimus treatment, third line RCC): stable disease; also recorded: stabilization disease | toxicities ([1]; everolimus 10 mg QD, four weeks after starting treatment): no toxicities | toxicities ([1]; everolimus 15 mg daily, four weeks later): without relevant toxicities | reduction of AUC ([3]; high-fat meal vs fasting): 33% | reduction of Cmax ([3]; high-fat meal vs fasting): 54% | reduction of AUC ([3]; low-fat meal vs fasting): 22% | reduction of Cmax ([3]; low-fat meal vs fasting): 42% | time to peak concentration ([4]; oral): 1.3 to 1.8 h | time to steady state [4]: 7 to 14 days | mean Cminss ([5]; 945 patients, lung, renal and neuroendocrine tumors): 15.65 ng/mL | patients achieving optimal plasmatic concentrations (10-30 ng/ml) ([5]; lung cancer): 55.2% | patients achieving optimal plasmatic concentrations (10-30 ng/ml) ([5]; neuroendocrine tumors): 45% | patients achieving optimal plasmatic concentrations (10-30 ng/ml) ([5]; renal cancer): 62.9% | decrease of Cminss ([5]; with CYP3A4 inducers): 7% | increase of Cminss ([5]; with strong CYP3A4 inhibitors): 10% | median PFS (breast cancer; breast cancer patients): 13.7 months | median Cminss in patients with dose-limiting toxicities (breast cancer): 19 ng/mL | patients with Cminss below 10 ng/ml (breast cancer): 50% | increase of AUC [6]: 3.5 fold | increase of Cmax [6]: 2.3 fold | increase of AUC [7]: 4.4 fold | increase of Cmax [7]: 2.0 fold | plasma concentration ([8]; before fenofibrate): 10.1 ng/mL | plasma concentration ([8]; with fenofibrate): 4.2 ng/mL | AUC ([9]; 5 mg twice daily): 436 ng·h/mL | maximum concentration (Cmax) ([9]; 5 mg twice daily): 40.3 ng/mL | minimum steady-state concentration (Cminss) ([9]; 5 mg twice daily): 13.7 ng/mL | AUC ([9]; 10 mg once daily): 435 ng·h/mL | maximum concentration (Cmax) ([9]; 10 mg once daily): 61.5 ng/mL | minimum steady-state concentration (Cminss) ([9]; 10 mg once daily): 9.6 ng/mL | median PFS (renal cancer [10]): 3.8 months | median PFS (renal cancer [11]; renal cancer patients, comparison group before the drop (earlier line)): 5.4 months | median PFS (renal cancer [11]; third line, previously treated with two anti-VEGFR tyrosine kinase inhibitor): 4 months

Compound: O=C1NC(=O)C(c2ccccc2)(c2ccccc2)N1 [phenytoin]
classification of effect on CYP3A4 metabolism (CYP3A4): strong inducers
